The source made the active and inactive calls.
Legend:
[1] = target: T1, Microphthalmia-associated transcription factor (Homo sapiens, UniProt O75030); test: reducers of TRPM1 reporter luminescence, concentration series – cell-based, SK-MEL-5, cherry-picked, set 3, MITF inhibitor project, dose response (AID 493073); assay type: functional;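 note: SK-MEL-5 melanoma cells with luciferase driven by the MITF target TRPM1 promoter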
T1 sequence (O75030 whole entry): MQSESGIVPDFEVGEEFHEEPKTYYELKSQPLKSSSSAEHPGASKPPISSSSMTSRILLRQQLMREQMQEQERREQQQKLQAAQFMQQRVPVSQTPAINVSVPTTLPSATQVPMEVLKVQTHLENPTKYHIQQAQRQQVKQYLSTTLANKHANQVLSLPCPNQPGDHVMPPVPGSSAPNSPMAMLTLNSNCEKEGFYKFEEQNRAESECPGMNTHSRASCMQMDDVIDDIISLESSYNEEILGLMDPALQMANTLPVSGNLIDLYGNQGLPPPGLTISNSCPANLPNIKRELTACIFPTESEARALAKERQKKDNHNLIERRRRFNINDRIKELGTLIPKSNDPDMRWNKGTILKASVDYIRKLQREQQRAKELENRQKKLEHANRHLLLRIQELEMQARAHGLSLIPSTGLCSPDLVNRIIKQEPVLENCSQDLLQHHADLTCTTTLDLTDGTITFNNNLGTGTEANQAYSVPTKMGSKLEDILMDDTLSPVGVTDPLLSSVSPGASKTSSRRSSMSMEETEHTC

[2] = Luminescence Cell-Based Dose Response HTS to Identify Activators of Luciferase Translation or Activity in H4 […] Cells. [Related pubchem assays: 1829 (Project Summary), 1814 (Primary HTS)]; assay type: functional
[3] = microbe, parasite or virus in culture; assay type: functional; conditions: Mycobacterium tuberculosis
H4 = test: Luminescence Cell-Based Dose Response HTS to Identify Activators of 5'UTR Stem-Loop Driven Prion Protein mRNA Translation in H4 Neuroglioblastoma Cells. [Related pubchem assays: 1829 (Project Summary), 1814 (Primary HTS)]; assay type: functional; conditions: Homo sapiens
cells = assay type: functional
BJ [4] = test: BJ-TERT fibroblast viability loss – cell-based, RAS-independent, luminescence, dose response (AID 1933); assay type: functional; conditions: Homo sapiens
[5] = DRD fibroblast viability loss – cell-based, non-viral oncogenic, luminescence, dose response (AID 1934); assay type: functional; conditions: Homo sapiens
BJ [6] = test: BJ-TERT-LT-ST fibroblast viability loss – cell-based, RAS-independent, luminescence, dose response (AID 1935); assay type: functional; conditions: Homo sapiens;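 note: BJ fibroblasts immortalized with TERT plus LT and ST oncogenes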
Paired box protein Pax-8 = Paired box protein Pax-8 (Homo sapiens, UniProt Q06710); test: PAX8 transcriptional activity inhibition in RMG-I – RMG-I cells, luciferase, cherry-pick, dose response (AID 687027); assay type: functional, cell-based;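 note: luciferase reporter driven by Pax8 target thyroperoxidase promoter measured by SteadyGlo luminescence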
Sequence of Paired box protein Pax-8 (Q06710 whole entry): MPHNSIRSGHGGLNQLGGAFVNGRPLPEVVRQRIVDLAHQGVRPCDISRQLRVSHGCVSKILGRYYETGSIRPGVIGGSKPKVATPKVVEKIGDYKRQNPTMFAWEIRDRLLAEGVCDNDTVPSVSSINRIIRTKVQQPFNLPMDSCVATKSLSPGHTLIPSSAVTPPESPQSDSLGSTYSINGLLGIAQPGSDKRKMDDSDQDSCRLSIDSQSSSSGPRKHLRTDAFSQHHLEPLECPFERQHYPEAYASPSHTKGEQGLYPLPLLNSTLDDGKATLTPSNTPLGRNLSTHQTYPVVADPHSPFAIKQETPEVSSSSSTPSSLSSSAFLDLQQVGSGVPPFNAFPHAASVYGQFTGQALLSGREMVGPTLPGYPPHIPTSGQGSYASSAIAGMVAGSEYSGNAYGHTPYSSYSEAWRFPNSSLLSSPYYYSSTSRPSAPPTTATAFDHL

[7] = Luminescence Cell-Based Dose Confirmation HTS to Identify Activators of 5'UTR Stem-Loop Driven Alpha-Synuclein mRNA Translation in H4 Neuroglioblastoma Cells. [Related pubchem assays: 1829 (Project Summary), 1814 (Primary HTS)]; assay type: functional
[8] = HPDE-C7 pancreatic duct cell viability loss – fluorescence, HTS (AID 430); assay type: functional, cell-based; conditions: Homo sapiens
[9] = Vero E6 cell cytotoxicity, dose response, cytotoxicity control for non-replicating M. tuberculosis project, secondary assay (AID 492998); assay type: functional, VeroE6; conditions: Vero C1008
[10] = THP-1 cell cytotoxicity, dose response, cytotoxicity control for non-replicating M. tuberculosis project (AID 489025); assay type: functional
[11] = HepG2 cell cytotoxicity, dose response, cytotoxicity control for non-replicating M. tuberculosis project (AID 489018); assay type: functional; conditions: Mycobacterium tuberculosis
BJ [12] = test: cells; assay type: functional, cell-based; conditions: Homo sapiens
[13] = viability loss of HPDE-C7K cells – cell-based, fluorescence, HTS, primary screen (AID 431); assay type: functional; conditions: Homo sapiens
SUMO-activating enzyme = SUMO-activating enzyme (Homo sapiens, UniProt Q9UBT2); test: blockers of UBC9-mediated SUMO conjugation – biochemical, AlphaScreen, SUMOylation inhibitor project, confirmation (AID 2018); assay type: functional
Sequence of SUMO-activating enzyme (Q9UBE0 whole entry): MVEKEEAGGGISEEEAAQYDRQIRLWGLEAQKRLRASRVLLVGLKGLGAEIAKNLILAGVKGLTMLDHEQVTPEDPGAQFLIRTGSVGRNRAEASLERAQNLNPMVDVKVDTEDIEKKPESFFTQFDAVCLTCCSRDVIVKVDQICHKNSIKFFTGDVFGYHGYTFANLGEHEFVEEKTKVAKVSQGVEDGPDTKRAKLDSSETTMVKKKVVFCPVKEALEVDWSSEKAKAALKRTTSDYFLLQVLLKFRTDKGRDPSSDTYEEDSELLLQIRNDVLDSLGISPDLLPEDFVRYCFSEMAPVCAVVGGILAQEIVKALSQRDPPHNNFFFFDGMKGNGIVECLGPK
Sequence of SUMO-activating enzyme (Q9UBT2 whole entry): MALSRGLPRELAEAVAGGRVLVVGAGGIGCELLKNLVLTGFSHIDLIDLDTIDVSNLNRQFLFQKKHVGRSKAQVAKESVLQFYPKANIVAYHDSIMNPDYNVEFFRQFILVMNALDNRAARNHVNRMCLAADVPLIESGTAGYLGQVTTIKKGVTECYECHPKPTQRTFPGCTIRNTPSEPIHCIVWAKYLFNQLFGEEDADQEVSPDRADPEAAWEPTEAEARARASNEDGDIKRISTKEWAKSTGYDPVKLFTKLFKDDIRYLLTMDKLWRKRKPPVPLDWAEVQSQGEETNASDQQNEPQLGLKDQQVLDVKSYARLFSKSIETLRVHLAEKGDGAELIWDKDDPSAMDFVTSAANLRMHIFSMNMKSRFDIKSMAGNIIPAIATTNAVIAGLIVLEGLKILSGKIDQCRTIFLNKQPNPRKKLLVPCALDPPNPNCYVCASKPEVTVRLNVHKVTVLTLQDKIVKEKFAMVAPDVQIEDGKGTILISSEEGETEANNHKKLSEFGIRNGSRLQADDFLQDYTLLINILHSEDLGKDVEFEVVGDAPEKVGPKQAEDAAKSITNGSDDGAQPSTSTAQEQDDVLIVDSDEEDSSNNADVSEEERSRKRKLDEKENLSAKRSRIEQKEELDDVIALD

Coagulation factor XII = target: T2, Coagulation factor XII (Homo sapiens, UniProt P00748); assay type: functional;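 note: activated factor XIIa alpha cleaving a fluorogenic AMC peptide substrate; inhibitor potency from loss of enzyme activity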
T2 sequence (P00748 whole entry): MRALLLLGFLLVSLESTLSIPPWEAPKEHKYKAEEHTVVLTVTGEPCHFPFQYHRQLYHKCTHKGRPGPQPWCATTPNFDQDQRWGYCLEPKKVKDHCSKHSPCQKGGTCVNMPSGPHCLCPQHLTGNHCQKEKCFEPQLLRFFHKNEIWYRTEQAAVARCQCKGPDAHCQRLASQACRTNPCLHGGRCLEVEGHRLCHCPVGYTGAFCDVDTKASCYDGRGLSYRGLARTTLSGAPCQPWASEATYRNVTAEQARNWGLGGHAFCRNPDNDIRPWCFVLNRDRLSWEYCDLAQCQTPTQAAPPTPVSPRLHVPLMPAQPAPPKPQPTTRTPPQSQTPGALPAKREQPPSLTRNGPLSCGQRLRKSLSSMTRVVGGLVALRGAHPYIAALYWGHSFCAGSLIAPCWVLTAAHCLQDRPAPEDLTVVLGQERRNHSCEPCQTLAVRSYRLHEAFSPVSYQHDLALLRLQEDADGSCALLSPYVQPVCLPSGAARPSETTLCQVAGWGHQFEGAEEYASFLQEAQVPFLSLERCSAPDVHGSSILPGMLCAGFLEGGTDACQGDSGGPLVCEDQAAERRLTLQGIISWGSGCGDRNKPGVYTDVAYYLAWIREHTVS

Large T antigen = Large T antigen (Simian virus 40, UniProt P03070); assay type: functional, Betapolyomavirus macacae;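 note: Confirmatory-stage PubChem screen for compounds that inhibit SV40 T antigen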
Sequence of Large T antigen (P03070 whole entry): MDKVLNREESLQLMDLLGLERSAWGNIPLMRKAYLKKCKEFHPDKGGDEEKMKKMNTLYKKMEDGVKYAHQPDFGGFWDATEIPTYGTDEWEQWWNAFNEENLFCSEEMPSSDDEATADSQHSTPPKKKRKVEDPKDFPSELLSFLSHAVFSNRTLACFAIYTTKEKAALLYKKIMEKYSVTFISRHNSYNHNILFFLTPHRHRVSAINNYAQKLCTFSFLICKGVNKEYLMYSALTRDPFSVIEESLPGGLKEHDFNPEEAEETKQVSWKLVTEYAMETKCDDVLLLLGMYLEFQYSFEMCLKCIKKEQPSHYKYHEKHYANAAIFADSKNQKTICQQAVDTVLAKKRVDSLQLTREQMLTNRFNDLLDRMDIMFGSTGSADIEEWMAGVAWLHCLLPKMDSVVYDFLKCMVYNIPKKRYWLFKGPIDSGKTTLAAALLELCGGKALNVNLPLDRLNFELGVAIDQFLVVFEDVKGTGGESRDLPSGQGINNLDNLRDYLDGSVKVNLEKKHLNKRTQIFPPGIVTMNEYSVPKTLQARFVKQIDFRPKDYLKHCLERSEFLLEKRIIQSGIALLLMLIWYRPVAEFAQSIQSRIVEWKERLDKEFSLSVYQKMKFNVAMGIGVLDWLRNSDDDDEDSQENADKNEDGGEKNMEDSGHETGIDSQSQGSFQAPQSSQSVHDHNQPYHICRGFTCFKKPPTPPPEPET

Cytochrome P450 2D6 = Cytochrome P450 2D6 (Homo sapiens, UniProt P10635);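 note: CYP2D6 member of a cytochrome P450 panel assay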
Sequence of Cytochrome P450 2D6 (P10635 whole entry): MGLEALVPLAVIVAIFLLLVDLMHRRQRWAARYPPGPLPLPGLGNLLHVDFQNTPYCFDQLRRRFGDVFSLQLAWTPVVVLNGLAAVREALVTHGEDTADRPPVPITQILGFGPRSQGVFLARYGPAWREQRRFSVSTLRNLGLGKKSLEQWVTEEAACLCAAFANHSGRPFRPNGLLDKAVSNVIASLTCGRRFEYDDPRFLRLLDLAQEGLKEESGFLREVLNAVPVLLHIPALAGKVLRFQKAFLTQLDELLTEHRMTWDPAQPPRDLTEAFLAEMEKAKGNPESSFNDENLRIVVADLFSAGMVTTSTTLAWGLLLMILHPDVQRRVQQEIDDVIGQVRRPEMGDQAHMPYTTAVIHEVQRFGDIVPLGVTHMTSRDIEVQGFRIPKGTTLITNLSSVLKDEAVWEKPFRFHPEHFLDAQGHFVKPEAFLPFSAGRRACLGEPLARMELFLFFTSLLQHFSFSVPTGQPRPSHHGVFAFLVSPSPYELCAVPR

Bcl-2-related protein A1 = target: T3, Bcl-2-related protein A1 (Mus musculus, UniProt Q07440); assay type: functional;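 note: confirmatory dose–response counterscreen on Bfl-1, used to check hits from a UBC13 polyubiquitin inhibitor campaign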
T3 sequence (Q07440 whole entry): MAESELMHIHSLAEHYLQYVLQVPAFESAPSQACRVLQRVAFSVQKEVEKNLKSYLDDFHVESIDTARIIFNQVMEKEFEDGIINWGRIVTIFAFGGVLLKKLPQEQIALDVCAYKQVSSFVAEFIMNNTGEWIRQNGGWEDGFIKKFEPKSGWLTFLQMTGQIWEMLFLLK

[14] = target: T4, Ubiquitin-conjugating enzyme E2 N (Homo sapiens, UniProt P61088); assay type: functional
T4 sequence (P61088 whole entry): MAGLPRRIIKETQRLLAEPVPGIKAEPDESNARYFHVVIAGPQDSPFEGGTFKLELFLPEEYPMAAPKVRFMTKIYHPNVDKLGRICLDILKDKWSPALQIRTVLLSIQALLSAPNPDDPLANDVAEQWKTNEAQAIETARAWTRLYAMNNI

[15] = target: T4, Ubiquitin-conjugating enzyme E2 N; assay type: functional; remark: listed apart in the source

In the case of `Nc1nnnn1/N=C/C(Br)=C/c1ccccc1`, the AC50 [1] is reported as 5.44 µM (active), the EC50 [2] is reported as > 120 µM (not active) and the CC50 [3] is reported as 6.31 µM (active). For the same compound, the EC50 (H4) was > 120 µM (not active), the IC50 (cells) was 5.76 µM (active) and the EC50 (BJ [4]) was 5.12 µM (inconclusive). The EC50 [5] was 3.95 µM (active), the EC50 (BJ [6]) was > 38 µM (inconclusive) and the AC50 (Paired box protein Pax-8) was 1.36 µM (active). For the same compound, the EC50 [7] was 17.4 µM (active), the EC50 [8] was 2.37 µM (active) and the CC50 [9] was 5.79 µM (active). For the same compound, the CC50 [10] was 5.96 µM (active), the CC50 [11] was 10 µM (active) and the EC50 (BJ [12]) was > 150 µM (inconclusive). The EC50 [13] was 2.94 µM (active).
In the case of `CC(=O)Nc1ccc(S(=O)(=O)Nc2nc3ccccc3nc2Nc2ccc3ccccc3c2)cc1`, the IC50 (SUMO-activating enzyme) is reported as > 100 µM (inactive).
With `CCOC(=O)C[n+]1c(C)sc2ccc(OC)cc21` the IC50 (Coagulation factor XII) was > 50 µM (inactive), the IC50 (Large T antigen) was 22.1 µM (active) and the AC50 (Cytochrome P450 2D6) was 12.6 µM (inconclusive).
In the case of `COc1ccc(CN(C)C(=O)Cc2ccc(OC)c(S(=O)(=O)N3CCOCC3)c2)cc1OC`, the IC50 (Bcl-2-related protein A1) is reported as > 20 µM (inactive), the IC50 [14] is reported as 10.8 µM (active) and the IC50 [15] is reported as 12.6 µM (active).
